Experiment [1] concerns HTLV-III (strain RF) grown in C8166 cells. The experiment can be described thus: in vitro antiviral activity (activity against HIV). It counts as cell-based. As to conditions: Human immunodeficiency virus 1, C8166, 72 h, read-out: Activity against HIV I50. On the procedure:
This assay uses HTLV-III (strain RF) grown in C8166 cells (a human CD4^+ T lymphoblastoid line) using RPM1 1640 medium with bicarbonate buffer, antibiotics and 10% foetal bovine serum.
A suspension of cells is infected with ten times the TCID50 of virus and adsorption is allowed to proceed for 90 minutes at 37° C. The cells are washed three times with medium. The test is carried out in 6 ml tissue culture tubes containing 2×10^5 infected cells in 1.5 ml of medium. Test compounds are dissolved in either aqueous medium or dimethyl sulphoxide, according to solubility, and a […] solution of the test compound is added. The cultures are incubated at 37° C. for 72 hours in a humidified atmosphere containing 5% carbon dioxide in air. The cultures are then centrifuged and an aliquot of the supernatant is solubilized with Nonidet P40 and subjected to an antigen capture assay which uses a primary antiserum with particular reactivity against the viral p24 antigen and a horseradish peroxidase detection system. Colour generation is measured spectrophotometrically and is plotted against the concentration of test compound. The concentration which produces 50% protection is determined (I50).

Another experiment concerns the target T1, HIV protease (Human immunodeficiency virus type 1 group M subtype B, UniProt P04585).
T1 construct: HIV protease was expressed in E. coli; made in house; host or cells: E. coli
The experiment can be described thus: in vitro inhibition of HIV protease. It counts as biochemical. Conditions: substrate succinyl-Val-Ser-Gln-Asn-Phe-Pro-Ile isobutylamide; citrate buffer pH5.5; 37° C.; 50% inhibition; read-out: HIV protease inhibition I50. On the procedure: HIV protease was expressed in E. coli and partially purified from soluble extracts of the bacterium by ammonium sulphate fractionation (0-30%). Protease activity was assayed using the protected heptapeptide succinyl-Val-Ser-Gln-Asn-Phe-Pro-Ile isobutylamide as the substrate. Cleavage of the substrate was quantified by measuring the production of H-Pro-Ile isobutyl-amide by the spectrophotometric assay of N-terminal proline,
1.25 mM of substrate were dissolved in 125 mM of citrate buffer (pH5.5) containing 0.125 mg/ml of Tween 20. […] of a solution of various concentrations of the test compound (dissolved in methanol or dimethyl sulphoxide and diluted with water containing 0.1% Tween 20) and […] of protease were added to […] of the above buffered substrate. Digestion was carried out at 37° C. for a fixed period of time and was terminated by the addition of 1 ml of colour reagent [30 mg/ml of isatin and 1.5 mg/ml of 2-(4-chlorobenzoyl)benzoic acid in 10% acetone in ethanol (vol./vol.)]. The solution was heated in a water bath and then the pigmented residues were re-dissolved in 1 ml of 1% pyrogallol in 33% water in acetone (wt./vol./vol.), The optical density of the solution was measured spectrophotometrically at 599 nm, The formation of H-Pro-Ile isobutylamide in the presence of the test compound was compared with controls and the concentration of test compound required to give 50% inhibition (I50) was determined by means of a graph plotted from the various concentrations of test compound used.

This note sets out measurements from patent US5583248A, “Amino acid derivatives having antiviral activity” (Hoffmann-La Roche Inc., priority 1991, dated 1996).

Regarding `CC(C)(C)NC(=O)[C@@H]1CCCC[C@H]1C[C@@H](O)[C@H](Cc1ccccc1)NC(=O)[C@H](CC(N)=O)NC(=O)OCc1ccccc1` [Compound A, 2(S)-[3(S)-[[N-(benzyloxycarbonyl)-L-asparaginyl]amino]-2(R)-hydroxy-4-phenylbutyl]-N-tert.butyl-1(R)-cyclohexanecarboxamide], the figures for the IC50 (in experiment [1]; on HIV protease) were 46 nM and 2 nM, respectively.

Take `CC(C)(C)NC(=O)[C@@H]1CCCC[C@@H]1C[C@@H](O)[C@H](Cc1ccccc1)NC(=O)[C@H](CC(N)=O)NC(=O)OCc1ccccc1` [Compound B, 2(R)-[3(S)-[[N-(benzyloxycarbonyl)-L-asparaginyl]amino]-2(R)-hydroxy-4-phenylbutyl]-N-tert.butyl-1(R)-cyclohexanecarboxamide]: the IC50 in experiment [1] is 1000 nM; on HIV protease, 57 nM.

In the case of `CC(C)(C)NC(=O)[C@@H]1CCCC[C@H]1C[C@@H](O)[C@H](Cc1ccccc1)NC(=O)[C@H](CC(N)=O)NC(=O)c1ccc2ccccc2n1` [Compound C, 2(S)-[3(S)-[[N-(2-quinolylcarbonyl)-L-asparaginyl]amino]-2(R)-hydroxy-4-phenylbutyl]-N-tert.butyl-1(R)-cyclohexanecarboxamide], the IC50 in experiment [1] stood at 4 nM.

With `CSC[C@H](NC(=O)OCc1ccccc1)C(=O)N[C@@H](Cc1ccccc1)[C@H](O)C[C@@H]1CCCC[C@H]1C(=O)NC(C)(C)C` [Compound D, 2(S)-[3(S)-[[N-(benzyloxycarbonyl)-S-methyl-L-cysteinyl]amino]-2(R)-hydroxy-4-phenylbutyl]-N-tert.butyl-1(R)-cyclohexanecarboxamide], on HIV protease, the IC50 stood at 1.3 nM.

In the case of `COC(=O)C[C@H](NC(=O)OCc1ccccc1)C(=O)N[C@@H](Cc1ccccc1)[C@H](O)C[C@@H]1CCCC[C@H]1C(=O)NC(C)(C)C` [Compound E, 2(S)-[3(S)-[[N-(benzyloxycarbonyl)-O-methyl-L-aspartyl]amino]-2(R)-hydroxy-4-phenylbutyl]-N-tert.butyl-1(R)-cyclohexanecarboxamide], the IC50 at HIV protease was 1.9 nM.

In the case of `CC(C)(C)NC(=O)[C@@H]1CCCC[C@H]1C[C@@H](O)[C@H](Cc1ccccc1)NC(=O)[C@H](CC#N)NC(=O)OCc1ccccc1` [Compound F, 2(S)-[3(S)-[[N-(benzyloxycarbonyl)-3-cyano-L-alanyl]amino]-2(R)-hydroxy-4-phenylbutyl]-N-tert.butyl-1(R)-cyclohexanecarboxamide], at HIV protease, the IC50 came out at 2 nM.
